Laboratory results published in US20230398130A1, “METHODS AND COMPOSITIONS FOR DIFFERENTIATING STEM CELLS” (Massachusetts Institute of Technology, priority 2020, published 2023).

Legend:
[1] = tested on: ISC-enriched organoids; assay: Primary screen, 384-well 2.5-D organoid differentiation (ENR+CD, 6 days): basal lysozyme secretion (LYZ.NS); assay type: cell-based, murine; settings: for Dose.FC.LYZ.NS (log 2 fold change) / Dose.FC.LYZ.NS (log 2 fold change, basal lysozyme secretion): vs plate median; for Dose.FC.LYZ.NS: FC vs plate median; for Z.LYZ.NS: standard z score of FC
From the text: (§1) High-throughput screening.

[2] = tested on: ISC-enriched organoids; assay: Primary screen, 384-well 2.5-D organoid differentiation (ENR+CD, 6 days): carbachol-induced lysozyme secretion (LYZ.S); assay type: cell-based, murine; settings: for Dose.FC.LYZ.S (log 2 fold change) / Dose.FC.LYZ.S: primary screen; for Dose.FC.LYZ.S (log 2 fold change) / Dose.FC.LYZ.S (log 2 fold change, carbachol-induced lysozyme secretion): vs plate median; for Dose.FC.LYZ.S: FC vs plate median
From the text: as §1

[3] = tested on: ISC-enriched organoids; assay: Primary screen, 384-well 2.5-D organoid differentiation (ENR+CD, 6 days, Target Selective Inhibitor Library, vs whole-plate median): ATP (CellTiter-Glo 3D, CTG); settings: for Dose.FC.CTG (log 2 fold change) / Dose.FC.CTG (log 2 fold change, ATP): vs plate median; for Dose.FC.CTG: FC vs plate median; for Z.CTG: standard z score of FC

| Compound | Z.LYZ.NS (standard z score) ([1]; Dose 0.08 uM, primary screen) | Dose.FC.LYZ.NS (log 2 fold change) ([1]; Dose 0.08 uM, primary screen) | Z.LYZ.NS (standard z score) ([1]; Dose 0.40 uM, primary screen) | Dose.FC.LYZ.NS (log 2 fold change) ([1]; Dose 0.40 uM, primary screen) | Z.LYZ.NS (standard z score) ([1]; Dose 2.00 uM, primary screen) | Dose.FC.LYZ.NS (log 2 fold change) ([1]; Dose 2.00 uM, primary screen) | Z.LYZ.NS (standard z score) ([1]; Dose 10.00 uM, primary screen) | Dose.FC.LYZ.NS (log 2 fold change) ([1]; Dose 10.00 uM, primary screen) | Dose.FC.LYZ.S (log 2 fold change) ([2]; Dose 0.08 uM) | Dose.FC.LYZ.S (log 2 fold change) ([2]; Dose 0.40 uM) | Dose.FC.LYZ.S (log 2 fold change) ([2]; Dose 2.00 uM) | Dose.FC.LYZ.S (log 2 fold change) ([2]; Dose 10.00 uM) | Z.CTG (standard z score) ([3]; Dose 0.08 uM, primary screen) | Dose.FC.CTG (log 2 fold change) ([3]; Dose 0.08 uM, primary screen) | Z.CTG (standard z score) ([3]; Dose 0.40 uM, primary screen) | Dose.FC.CTG (log 2 fold change) ([3]; Dose 0.40 uM, primary screen) | Z.CTG (standard z score) ([3]; Dose 2.00 uM, primary screen) | Dose.FC.CTG (log 2 fold change) ([3]; Dose 2.00 uM, primary screen) | Z.CTG (standard z score) ([3]; Dose 10.00 uM, primary screen) | Dose.FC.CTG (log 2 fold change) ([3]; Dose 10.00 uM, primary screen) | other results |
| --- | --- | --- | --- | --- | --- | --- | --- | --- | --- | --- | --- | --- | --- | --- | --- | --- | --- | --- | --- | --- | --- |
| O=C1CC(=O)c2c(Cl)c(Cl)c(Cl)c(Cl)c21 [TCID] | 0.431 | 0.049 | −0.155 | −0.018 | 0.578 | 0.066 | −0.159 | −0.018 | 0.062 | 0.017 | −0.066 | −0.054 | −0.325 | −0.136 | −0.017 | −0.007 | −0.517 | −0.217 | −0.545 | −0.228 |  |
| CC[C@@H]1/C=C/C=C/C[C@H](C)[C@H](O)[C@](C)(O)C(=O)[C@H](C)[C@@H](O)[C@H](C)C(=O)[C@H](C)[C@@H](O)[C@H](C)/C=C/C(=O)O[C@H]2[C@@H](C)[C@@H](CC1)O[C@@]1(CC[C@@H](C)[C@@H](C[C@H](C)O)O1)[C@@H]2C [Oligomycin A] |  |  |  |  |  |  |  |  |  |  |  |  |  |  |  |  |  |  |  |  | Dose.FC.LYZ.NS ([1]; Dose 0.08 uM, primary screen): −0.204 log 2 fold change; Z.LYZ.NS ([1]; Dose 0.08 uM): −1.778; Dose.FC.LYZ.NS ([1]; Dose 0.40 uM, primary screen): −0.231 log 2 fold change; Z.LYZ.NS ([1]; Dose 0.40 uM): −2.013; Dose.FC.LYZ.NS ([1]; Dose 2.00 uM, primary screen): −0.213 log 2 fold change; Z.LYZ.NS ([1]; Dose 2.00 uM): −1.857; Dose.FC.LYZ.NS ([1]; Dose 10.00 uM, primary screen): −0.223 log 2 fold change; Z.LYZ.NS ([1]; Dose 10.00 uM): −1.943; Dose.FC.LYZ.S ([2]; Dose 0.08 uM): −0.243 log 2 fold change; Dose.FC.LYZ.S ([2]; Dose 0.40 uM): −0.274 log 2 fold change; Dose.FC.LYZ.S ([2]; Dose 2.00 uM): −0.269 log 2 fold change; Dose.FC.LYZ.S ([2]; Dose 10.00 uM): −0.288 log 2 fold change; Dose.FC.CTG ([3]; Dose 0.08 uM, primary screen): −0.662 log 2 fold change; Z.CTG ([3]; Dose 0.08 uM): −1.581; Dose.FC.CTG ([3]; Dose 0.40 uM, primary screen): −0.706 log 2 fold change; Z.CTG ([3]; Dose 0.40 uM): −1.685; Dose.FC.CTG ([3]; Dose 2.00 uM, primary screen): −0.946 log 2 fold change; Z.CTG ([3]; Dose 2.00 uM): −2.261; Dose.FC.CTG ([3]; Dose 10.00 uM, primary screen): −1.244 log 2 fold change; Z.CTG ([3]; Dose 10.00 uM): −2.972 |
| Cc1nnc(C(=O)NC(C)(C)c2nc(C(=O)NCc3ccc(F)cc3)c(O)c(=O)n2C)o1 [Raltegravir (MK-0518)] | 1.627 | 0.187 | 0.302 | 0.035 | 0.254 | 0.029 | 0.366 | 0.042 | 0.137 | 0.037 | 0.122 | 0.183 | 0.258 | 0.108 | 0.224 | 0.094 | 0.471 | 0.197 | 0.407 | 0.170 |  |
| VU 0364439 |  |  |  |  |  |  |  |  |  |  |  |  |  |  |  |  |  |  |  |  | Z.LYZ.NS (standard z score) ([1]; dose 0.08 uM): 0.715; Dose.FC.LYZ.NS (log 2 fold change, basal lysozyme secretion) ([1]; dose 0.08 uM): 0.082; Z.LYZ.NS (standard z score) ([1]; dose 0.40 uM): 0.099; Dose.FC.LYZ.NS (log 2 fold change, basal lysozyme secretion) ([1]; dose 0.40 uM): 0.011; Z.LYZ.NS (standard z score) ([1]; dose 2.00 uM): 0.089; Dose.FC.LYZ.NS (log 2 fold change, basal lysozyme secretion) ([1]; dose 2.00 uM): 0.010; Z.LYZ.NS (standard z score) ([1]; dose 10.00 uM): −0.476; Dose.FC.LYZ.NS (log 2 fold change, basal lysozyme secretion) ([1]; dose 10.00 uM): −0.055; Dose.FC.LYZ.S (log 2 fold change, carbachol-induced lysozyme secretion) ([2]; dose 0.08 uM): 0.108; Dose.FC.LYZ.S (log 2 fold change, carbachol-induced lysozyme secretion) ([2]; dose 0.40 uM): 0.124; Dose.FC.LYZ.S (log 2 fold change, carbachol-induced lysozyme secretion) ([2]; dose 2.00 uM): −0.043; Dose.FC.LYZ.S (log 2 fold change, carbachol-induced lysozyme secretion) ([2]; dose 10.00 uM): −0.038; Z.CTG (standard z score) ([3]; dose 0.08 uM): 0.058; Dose.FC.CTG (log 2 fold change, ATP) ([3]; dose 0.08 uM): 0.024; Z.CTG (standard z score) ([3]; dose 0.40 uM): −0.289; Dose.FC.CTG (log 2 fold change, ATP) ([3]; dose 0.40 uM): −0.121; Z.CTG (standard z score) ([3]; dose 2.00 uM): −0.616; Dose.FC.CTG (log 2 fold change, ATP) ([3]; dose 2.00 uM): −0.258; Z.CTG (standard z score) ([3]; dose 10.00 uM): 0.022; Dose.FC.CTG (log 2 fold change, ATP) ([3]; dose 10.00 uM): 0.009 |
